From patent US6673355B1 (priority 1995, dated 2004)
Values joined by “and” are separate entries in the source; they are usually repeats but may differ in a detail not shown here. Equal values may be shown once. “Also recorded” adds a separate entry of the source. Read-outs that look alike come from different tables or passages of the source.

What was measured:
full-length NSP4 = tested on: full-length NSP4; design: species or system simian rotavirus SA11; conditions: in vivo, sc
simian rotavirus SA11 = conditions: mouse, in vivo
murine rotavirus ECwt = conditions: mouse, in vivo
SA11 VP6 = SA11 VP6 (Rotavirus A, UniProt P03531); design: species or system simian rotavirus SA11; conditions: in vivo
Sequence of SA11 VP6 (P03531 whole entry, looked up): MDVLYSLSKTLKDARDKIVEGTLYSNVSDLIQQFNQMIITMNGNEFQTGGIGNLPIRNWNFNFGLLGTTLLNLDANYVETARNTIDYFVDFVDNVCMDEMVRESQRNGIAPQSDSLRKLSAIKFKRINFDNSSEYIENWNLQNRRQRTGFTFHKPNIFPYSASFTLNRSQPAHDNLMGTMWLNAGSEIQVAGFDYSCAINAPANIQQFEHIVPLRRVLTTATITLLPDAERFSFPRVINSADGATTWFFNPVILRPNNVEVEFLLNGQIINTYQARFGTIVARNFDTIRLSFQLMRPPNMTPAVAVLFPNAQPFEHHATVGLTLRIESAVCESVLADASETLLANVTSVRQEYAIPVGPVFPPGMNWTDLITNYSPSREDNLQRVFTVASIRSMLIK

CD1 mice = conditions: mouse, in vivo
Balb/C mice = conditions: mouse, in vivo, ip
[1] = tested on: infectious SA11 rotavirus; conditions: mouse, in vivo
CD1 mice ileal mucosa = type: cell-based, mouse
19 day old pups = conditions: mouse, in vivo
CFTR knock-out mice = conditions: mouse, in vivo
[2] = in vivo
insect cells = conditions: cited from earlier work
mice [3] = conditions: mouse, in vivo
mice [4] = conditions: mouse, in vivo; cited from earlier work

## QS-21
full-length NSP4
  serum antibody geometric mean titers (GMT) to NSP4 full-length in dams: lacked antibody
Simian rotavirus SA11
  Mean diarrhea score: 3.5 and 3.3
  Pups with diarrhea % at indicated DPI: 3: 100%
  Pups with diarrhea % at indicated DPI: 4: 56%
  Pups with diarrhea/total at DPI 2: (8/12); also recorded: (3/9)
  Pups with diarrhea/total at DPI 3: (12/12); also recorded: (9/9)
  Pups with diarrhea/total at DPI 4: (4/12); also recorded: (5/9)
  Pups with diarrhea/total at DPI 7: (12/12); also recorded: (9/9)
  duration of diarrhea: at least two days
Simian rotavirus SA11; po
  Pups with diarrhea % at indicated DPI: 2: 76%
  Pups with diarrhea % at indicated DPI: 3: 100%
  Pups with diarrhea % at indicated DPI: 4: 33%
Murine rotavirus ECwt
  Mean diarrhea score: 3.3
  Pups with diarrhea % at indicated DPI: 0-8: 100%
  Pups with diarrhea % at indicated DPI: 2: 29%
  Pups with diarrhea % at indicated DPI: 3: 100%
  Pups with diarrhea % at indicated DPI: 4: 100%
  Pups with diarrhea % at indicated DPI: 5: 100%
  Pups with diarrhea % at indicated DPI: 6: 86%
  Pups with diarrhea % at indicated DPI: 7: 71%
  Pups with diarrhea % at indicated DPI: 8: 14%
  Pups with diarrhea/total at DPI 0-8: (7/7)
  Pups with diarrhea/total at DPI 2: (2/7)
  Pups with diarrhea/total at DPI 3: (7/7)
  Pups with diarrhea/total at DPI 4: (7/7)
  Pups with diarrhea/total at DPI 5: (7/7)
  Pups with diarrhea/total at DPI 6: (6/7)
  Pups with diarrhea/total at DPI 7: (5/7)
  Pups with diarrhea/total at DPI 8: (1/7)
SA11 VP6
  serum antibody titers to VP6 in dams (GMT): 2×10^3

## DKLTTREIEQVELLKRIYDKLT [NSP4 114-135]
CD1 mice
  time frame of diarrhea induction: about 3 hrs
CD1 mice; ip
  # responders/total # tested: 8/12
  % Diarrhea: 67%
  DD50 (50% diarrheal dose): 79 nmol
  diarrhea typically continued for: up to 8 hr
Balb/C mice
  % Diarrhea: 100% and 80%
[1]
  % pups with diarrhea, 2 days: 17%
  % pups with diarrhea, 3 days: 0%
  % pups with diarrhea, Total: 42%
  pups with diarrhea/total pups, 2 days: (2/12)
  pups with diarrhea/total pups, 3 days: (0/12)
  pups with diarrhea/total pups, Total: (5/12)
CD1 mice ileal mucosa
  increase in mucosal Isc after FSK pretreatment: 64 μA/cm2
19 day old pups
  diarrhea: no diarrhea was seen
  intestinal fluid accumulation: significant fluid accumulation
CFTR knock-out mice
  % of animals with diarrhea: 80%
[2]
  weight lower than normal animals: 20-30%
Insect cells
  intracellular calcium in insect cells: mobilize intracellular calcium levels

## EIEQVELLKRIYDKLTVQTTGEIDMTKE [NSP4 120-147]
Mice [3]
  % animals with diarrhea: 88%
  animals with diarrhea: 7 out of 8
  animals with severe diarrhea: 5 of 5

## TKDEIEKQMDRVVKEMRRQLEMIDKLTTREIEQ [NSP4 90-123]
CD1 mice; ip
  # responders/total # tested: 2/10
  % Diarrhea: 20%

## C[N+](C)(C)CCOC(N)=O [Carbachol (Cch), carbachol]
CD1 mice ileal mucosa
  Isc with FSK (potentiated effect of FSK): 64 μA/cm^2
  increase in mucosal Isc after FSK pretreatment: 63 μA/cm2
  ▴ISC: 9 ± 2 μA/cm^2 and 14 ± 4 μA/cm^2

## MIDKLTTREI EQVELL KRIYDKLTVQTTGEIDMTKEINQKNVRTLEEWESGKNPYEPKEVTAAM [NSP4 112-175]
Mice [4]
  enterotoxin activity: has enterotoxin activity in mice

## DTGRNLGEFKAYPDGFLTCV [NV 464-483]
CD1 mice; ip
  # responders/total # tested: 0/10
  % Diarrhea: 0%
  symptoms with control peptides: No symptoms

## EKLTDLNYTLSVITLMNNTLH [NSP4 2-22]
CD1 mice; ip
  # responders/total # tested: 0/11
  % Diarrhea: 0%
  symptoms with control peptides: No symptoms
[1]
  % pups with diarrhea, 2 days: 63%
  % pups with diarrhea, 3 days: 25%
  % pups with diarrhea, Total: 100%
  pups with diarrhea/total pups, 2 days: (10/16)
  pups with diarrhea/total pups, 3 days: (4/16)
  pups with diarrhea/total pups, Total: (16/16)

## C=C[C@@]1(C)CC(=O)[C@]2(O)[C@@]3(C)[C@@H](O)CCC(C)(C)[C@@H]3[C@H](O)[C@H](OC(C)=O)[C@@]2(C)O1 [Forskolin (FSK), forskolin]
CD1 mice ileal mucosa
  ▴ISC: 44 ± 0.7 μA/cm^2 and 41 ± 7 μA/cm^2
